From publication PMC11544713, “The Application of Untargeted Metabolomic Approaches for the Search of Common Bioavailable Metabolites in Human Plasma Samples from Lippia citriodora and Olea europaea Extracts” (Journal of Agricultural and Food Chemistry, 2024) come the findings set out here.

This data set in a line: Acute intervention: nutrikinetics of plasma metabolites after ingestion of O. europaea extract (untargeted HPLC-ESI-QTOF-MS). The protocol:
A total of 25 healthy individuals participated, with an average age of 27 ± 9 years and a mean body mass index (BMI) of 23 ± 3 kg/m^2. None of the participants were taking any medications or nutritional supplements nor did they have any chronic diseases or gastrointestinal issues. The sample size was established based on findings from previous bioavailability research.[14] All participants provided informed consent before participating in the study.
The intervention study was carried out at Miguel Hernández University. Following an overnight fast, the volunteers were categorized into the subsequent groups: a subgroup to evaluate the LC leaf extract (n = 8), another for the OE leaf extract (n = 8), and the placebo subgroup (n = 9). This was a double-blind study, in which sample collection and treatment were carried out uniformly across all three subgroups.
Water was provided ad libitum. Prior to the ingestion of the capsule, a nurse inserted a cannula into the ulnar vein of each volunteer’s nondominant arm, and blood samples were drawn into EDTA-coated tubes at baseline (t = 0). Blood samples were then collected at 0.5, 1, 2, 4, 6, 8, and 10 h after the consumption of the 500 mg capsule. Plasma was separated through centrifugation (10 min at 3000 rpm and 4 °C) and stored at −80 °C until further analysis.
Plasma samples were initially treated using a mixture of methanol and ethanol (50:50; v:v) to remove proteins, following previously reported protocols.[19] During the sample treatment, pooled quality controls (pooled-QC) were prepared by combining equal aliquots from each sample. These QC samples were processed by using the same protocols as the experimental biological samples.
A reversed-phase analytical C18 column (Agilent Zorbax Eclipse Plus, 1.8 μm, 4.6 × 150 mm^2) with a protective cartridge with the same packing was used. MS data were acquired in negative ionization mode, operating in full scan across a mass-to-charge ratio (m/z) range of 50–1700. The analytical method used was adapted from that described by Villegas-Aguilar et al.[19]
Metabolite nutrikinetics were studied using PKSolver, an add-in program for pharmacokinetic data analysis in Microsoft Excel. The time to reach the maximum concentration (observed Tmax) was calculated for each significant metabolite. As an untargeted metabolomic approach was used to detect the circulating metabolites, these were not quantified. Therefore, the maximum concentration (Cmax) and area under the curve (AUC) parameters were calculated in a relative way by using the deconvoluted chromatographic areas. […] Statistical differences were determined by unpaired t tests. All p values less than 0.05 were considered statistically significant.

[1] abbreviates: 0.5 h after O. europaea extract.
The mark [2] stands for this setting: human plasma, 500 mg capsule of O. europaea (OE) extract, oral, mean ± SD.

For the compound `CC(=O)Oc1cc2c(c(C)c1OC(C)=O)CC=C1[C@@]2(C)CC[C@@]2(C)C3C[C@](C)(C(=O)O)CC[C@]3(C)CC[C@]12C` (stereo partly drawn) [dihydrocelastryl diacetate], the “mean chromatographic area in plasma, T0.5” value under setting [1] is on record as 0. Where the note is “1 h after O. europaea extract”, the “mean chromatographic area in plasma, T1” value stood at 38. The “mean chromatographic area in plasma, T2” value (2 h after O. europaea extract) is recorded as 150. Further, the “mean chromatographic area in plasma, T4” value (4 h after O. europaea extract) turned out to be 163. For the setting “6 h after O. europaea extract”, the “mean chromatographic area in plasma, T6” value came out at 81. In addition, the “mean chromatographic area in plasma, T8” value (8 h after O. europaea extract) was determined as 38. The “mean chromatographic area in plasma, T10” value (10 h after O. europaea extract) was 20. Further, under setting [2], the “Cmax: relative maximum plasma level” value was 239 ± 78 relative chromatographic area and the “observed Tmax: time required to reach Cmax” value (“observed Tmax: time required” below) is 3 ± 1 h.

`COc1cc(CCC(=O)O)ccc1O[C@@H]1O[C@H](C(=O)O)[C@@H](O)[C@H](O)[C@H]1O` [dihydroferulic acid 4-O-glucuronide]: where the note is “human, in vivo, po, 500 mg”, the “Cmax: relative maximum plasma level” value is reported as 171 ± 110 relative chromatographic area and the “observed Tmax: time required” value turned out to be 2 ± 2 h. For the same compound, where the note is “in vivo”, the “mean chromatographic area in plasma, T0.5” value was determined as 74; the “mean chromatographic area in plasma, T1” value is 114; the “mean chromatographic area in plasma, T2” value was 94; the “mean chromatographic area in plasma, T4” value was 113. Also, for the setting “in vivo”, the “mean chromatographic area in plasma, T6” value came to 109; the “mean chromatographic area in plasma, T8” value stood at 74; the “mean chromatographic area in plasma, T10” value worked out at 41.

`COc1cc(CCC(=O)O)ccc1OS(=O)(=O)O` [dihydroferulic acid 4-sulfate]: for the setting “human, in vivo, po, 500 mg”, the “Cmax: relative maximum plasma level” value is 190 ± 20 relative chromatographic area and the “observed Tmax: time required” value is recorded as 1.3 ± 0.4 h.

Regarding `O=C(Oc1cc(O)c2c(c1)O[C@H](c1cc(O)c(O)c(O)c1)[C@H](O)C2)c1cc(O)c(O)c(O)c1` [epigallocatechin 7-O-gallate], the “mean chromatographic area in plasma, T0.5” value under setting [1] is on record as 14. Besides, the “mean chromatographic area in plasma, T1” value (1 h after O. europaea extract) was 126. Besides, the “mean chromatographic area in plasma, T2” value (2 h after O. europaea extract) came to 12. For the same compound, for the setting “4 h after O. europaea extract”, the “mean chromatographic area in plasma, T4” value is given as 0. Moreover, the “mean chromatographic area in plasma, T6” value (6 h after O. europaea extract) is 0. Further, the “mean chromatographic area in plasma, T8” value (8 h after O. europaea extract) is given as 0. Moreover, the “mean chromatographic area in plasma, T10” value (10 h after O. europaea extract) amounted to 0. Under setting [2], the “Cmax: relative maximum plasma level” value is 126 ± 30 relative chromatographic area and the “observed Tmax: time required” value turned out to be 1 ± 0 h.

`COc1cc(C(=O)O)cc(OC)c1OC` [eudesmic acid]: the “mean chromatographic area in plasma, T0.5” value under setting [1] was determined as 34. Besides, the “mean chromatographic area in plasma, T1” value (1 h after O. europaea extract) came out at 120. Also, the “mean chromatographic area in plasma, T2” value (2 h after O. europaea extract) was 28. Besides, under “4 h after O. europaea extract”, the “mean chromatographic area in plasma, T4” value was 0. In addition, where the note is “6 h after O. europaea extract”, the “mean chromatographic area in plasma, T6” value is listed as 0. For the same compound, the “mean chromatographic area in plasma, T8” value (8 h after O. europaea extract) came to 0. For the same compound, the “mean chromatographic area in plasma, T10” value (10 h after O. europaea extract) was determined as 0. Under setting [2], the “Cmax: relative maximum plasma level” value is given as 120 ± 27 relative chromatographic area and the “observed Tmax: time required” value is reported as 1 ± 0 h.

As to `COc1cc(-c2oc3cc(O[C@@H]4O[C@@H](C)[C@H](O)[C@@H](O)[C@H]4O)cc(O)c3c(=O)c2O[C@@H]2O[C@H](CO)[C@@H](O)[C@H](O)[C@H]2O)ccc1O` [isorhamnetin 3-O-glucoside-7-O-rhamnoside], the “mean chromatographic area in plasma, T0.5” value under setting [1] was determined as 34. For the same compound, the “mean chromatographic area in plasma, T1” value (1 h after O. europaea extract) came to 130. Where the note is “2 h after O. europaea extract”, the “mean chromatographic area in plasma, T2” value came out at 14. In addition, the “mean chromatographic area in plasma, T4” value (4 h after O. europaea extract) is reported as 0. Moreover, under “6 h after O. europaea extract”, the “mean chromatographic area in plasma, T6” value stood at 0. In addition, the “mean chromatographic area in plasma, T8” value (8 h after O. europaea extract) was 0. Also, for the setting “10 h after O. europaea extract”, the “mean chromatographic area in plasma, T10” value amounted to 0. Besides, under setting [2], the “Cmax: relative maximum plasma level” value was 133 ± 18 relative chromatographic area and the “observed Tmax: time required” value was found to be 0.9 ± 0.2 h.

On to `C/C=C1/[C@H](O[C@@H]2O[C@H](CO)[C@@H](O)[C@H](O)[C@H]2O)OC=C(C(=O)OC)[C@H]1CC(=O)OCCc1ccc(O)c(O)c1` [oleuropein], for which the “detection in plasma samples” value (in vivo) was “not detected as being significant in plasma samples”.

In the case of `C=Cc1ccc(O)c(OC)c1` [p-vinylguaiacol], where the note is “human, in vivo, po, 500 mg”, the “Cmax: relative maximum plasma level” value is reported as 184 ± 45 relative chromatographic area and the “observed Tmax: time required” value is recorded as 1 ± 0 h. Where the note is “in vivo”, the “mean chromatographic area in plasma, T0.5” value is recorded as 90; the “mean chromatographic area in plasma, T1” value is 184; the “mean chromatographic area in plasma, T2” value is 83; the “mean chromatographic area in plasma, T4” value worked out at 0. In addition, where the note is “in vivo”, the “mean chromatographic area in plasma, T6” value stood at 0; the “mean chromatographic area in plasma, T8” value was determined as 0; the “mean chromatographic area in plasma, T10” value is given as 0.

Turning to `COc1cc(C(=O)O)ccc1OC1OC(C(=O)O)C(O)C(O)C1O` (stereo not drawn) [vanillic acid glucuronide], under setting [1], the “mean chromatographic area in plasma, T0.5” value is reported as 0. Further, the “mean chromatographic area in plasma, T1” value (1 h after O. europaea extract) was 37. Also, the “mean chromatographic area in plasma, T2” value (2 h after O. europaea extract) worked out at 77. Moreover, the “mean chromatographic area in plasma, T4” value (4 h after O. europaea extract) was 63. Moreover, the “mean chromatographic area in plasma, T6” value (6 h after O. europaea extract) came to 44. For the same compound, the “mean chromatographic area in plasma, T8” value (8 h after O. europaea extract) is given as 22. Where the note is “10 h after O. europaea extract”, the “mean chromatographic area in plasma, T10” value was found to be 0. Under setting [2], the “Cmax: relative maximum plasma level” value is 111 ± 48 relative chromatographic area and the “observed Tmax: time required” value worked out at 4 ± 3 h.

Regarding `COc1cc(C=O)ccc1O[C@@H]1O[C@H](C(=O)O)[C@@H](O)[C@H](O)[C@H]1O` [vanillin glucuronide], under “human, in vivo, po, 500 mg”, the “Cmax: relative maximum plasma level” value is 180 ± 66 relative chromatographic area and the “observed Tmax: time required” value is given as 1 ± 0 h. For the same compound, for the setting “in vivo”, the “mean chromatographic area in plasma, T0.5” value came to 60; the “mean chromatographic area in plasma, T1” value was found to be 180; the “mean chromatographic area in plasma, T2” value is listed as 121; the “mean chromatographic area in plasma, T4” value is recorded as 40. Also, under “in vivo”, the “mean chromatographic area in plasma, T6” value worked out at 11; the “mean chromatographic area in plasma, T8” value was determined as 0; the “mean chromatographic area in plasma, T10” value is 0.

For the compound `O=c1cc(-c2ccc(O)cc2)oc2c([C@@H]3O[C@H](CO)[C@@H](O)[C@H](O)[C@H]3O)c(O)c([C@@H]3O[C@H](CO)[C@@H](O)[C@H](O)[C@H]3O)c(O)c12` [vicenin-2], under “human, in vivo, po, 500 mg”, the “Cmax: relative maximum plasma level” value is 137 ± 59 relative chromatographic area and the “observed Tmax: time required” value was 1 ± 0 h. Where the note is “in vivo”, the “mean chromatographic area in plasma, T0.5” value is 34; the “mean chromatographic area in plasma, T1” value was 137; the “mean chromatographic area in plasma, T2” value amounted to 46; the “mean chromatographic area in plasma, T4” value was determined as 0. Further, for the setting “in vivo”, the “mean chromatographic area in plasma, T6” value amounted to 0; the “mean chromatographic area in plasma, T8” value is 0; the “mean chromatographic area in plasma, T10” value stood at 0.

For the compound desoxy elenolic acid, for the setting “human, in vivo, po, 500 mg”, the “Cmax: relative maximum plasma level” value was 124 ± 24 relative chromatographic area and the “observed Tmax: time required” value came to 1.1 ± 0.4 h. Also, where the note is “in vivo”, the “mean chromatographic area in plasma, T0.5” value worked out at 56; the “mean chromatographic area in plasma, T1” value worked out at 123; the “mean chromatographic area in plasma, T2” value was determined as 35; the “mean chromatographic area in plasma, T4” value is 0. Besides, where the note is “in vivo”, the “mean chromatographic area in plasma, T6” value was 0; the “mean chromatographic area in plasma, T8” value was 0; the “mean chromatographic area in plasma, T10” value amounted to 0.

As for “homovanillyl alcohol glucuronide [homovanillyl alcohol glucuronide isomer 1]”, under “0.5 h after O. europaea extract, listed as homovanillic alcohol glucuronide isomer 1”, the “mean chromatographic area in plasma, T0.5” value was found to be 274. The “mean chromatographic area in plasma, T1” value (1 h after O. europaea extract, listed as homovanillic alcohol glucuronide isomer 1) was 503. Further, the “mean chromatographic area in plasma, T2” value (2 h after O. europaea extract, listed as homovanillic alcohol glucuronide isomer 1) came to 372. In addition, the “mean chromatographic area in plasma, T4” value (4 h after O. europaea extract, listed as homovanillic alcohol glucuronide isomer 1) stood at 183. In addition, the “mean chromatographic area in plasma, T6” value (6 h after O. europaea extract, listed as homovanillic alcohol glucuronide isomer 1) is reported as 66. Moreover, under “8 h after O. europaea extract, listed as homovanillic alcohol glucuronide isomer 1”, the “mean chromatographic area in plasma, T8” value amounted to 26. Besides, under “10 h after O. europaea extract”, the “mean chromatographic area in plasma, T10” value is listed as 0. Besides, under setting [2], the “Cmax: relative maximum plasma level” value is listed as 504 ± 154 relative chromatographic area and the “observed Tmax: time required” value is reported as 1.1 ± 0.3 h.
